Literature values as cited in patent US20080033027A1, “Drug combination pharmaceutical compositions and methods for using them” (VICUS THERAPEUTICS SPE 1, LLC, priority 2005, published 2008).
Counter-ions that a name gives are not always drawn. Like-named read-outs stand apart in the source and are kept apart here.

Experiments:
[1] = for Elimination (% unchanged): value in parentheses; for Elimination, Renal (%): share eliminated by the renal route; for Elimination, Biliary/fecal (%): share eliminated by the biliary/fecal route
[2] = for solubility in ethanol / alcohol: alcohol(s)
[3] = tested on: cachectic severely burned children; cachectic metastatic cancer patients
[4] = oral EPA, after entering the blood stream
[5] = cachectic metastatic cancer patients
[6] = cachectic severely burned children

| Biotransformation ([1]; in vivo) | Elimination (route) ([1]; in vivo) | Half-life ([1]; in vivo) | Oral Absorp. (%) ([1]; in vivo) | Time to Peak Effect Single dose [1] | Elimination (% unchanged) [1] | Removable by Hemodialysis ([1]; in vivo) | Elimination, Renal (%) [1] | Compound | also measured |
| --- | --- | --- | --- | --- | --- | --- | --- | --- | --- |
| Hepatic | Renal | 6 h | 85% | 1 to 3 h | (50-70) % |  |  | CC(C)(C)NCC(O)COc1cccc2c1CCC(=O)N2 (stereo not shown) [Carteolol] |  |
| Hepatic | Biliary/fecal |  | 100% |  | < 5% | No | 55-60% | CC(CCc1ccccc1)NCC(O)c1ccc(O)c(C(N)=O)c1 (stereo not shown) [Labetalol] | Half-life (hr) ([1]; IV): ~5.5 IV hr; Half-life (hr) ([1]; oral): 6-8 oral hr; Time to Peak Effect Single dose ([1]; IV): 0.083 h (IV); Time to Peak Effect Single dose ([1]; oral): 2 to 4 h |
|  |  |  |  |  |  |  |  | CCc1cccc2c3c([nH]c12)C(CC)(CC(=O)O)OCC3 (single isomer, unassigned; (+)) [Etodolac, (+) 1,8-diethyl-1,3,4,9-tetrahydropyrano-[3,4-b]indole-1-acetic acid] | solubility in ethanol / alcohol [2]: soluble; solubility in water [2]: insoluble; GI complications rate (among non-specific Cox inhibitors): lowest; cardiovascular events (compared with specific cox2 inhibitors): without the reported increase |
|  |  |  | 50-60% | 2 to 4 h |  |  | 85-100% | CC(C)NCC(O)COc1ccc(CC(N)=O)cc1 (stereo not shown) [Atenolol] |  |
| Hepatic | Renal | 1.3 to 1.5 h | 90% |  | < 5% |  |  | C=CCOc1ccccc1OCC(O)CNC(C)C (stereo not shown) [Oxprenolol] |  |
|  |  | 3 to 7 h |  |  |  |  |  | COCCc1ccc(OCC(O)CNC(C)C)cc1 (stereo not shown) [Metoprolol] |  |
|  | Renal | 7 to 18 h | >80% |  | 75% |  |  | CC(C)NCC(O)c1ccc(NS(C)(=O)=O)cc1 (stereo not shown) [Sotalol] |  |
| Hepatic | Renal | 9 to 12 h | 80-90% |  | 50% | No |  | CC(C)NCC(O)COc1ccc(COCCOC(C)C)cc1 (stereo not shown) [Bisoprolol] | Elimination, Biliary/fecal (%) [1]: <2% Fecal; Half-life ([1]; stated in the text): 10 to 12 h |
| Hepatic |  | 7 to 10 h | 25-35% |  |  | No | <2% Renal | COc1ccccc1OCCNCC(O)COc1cccc2[nH]c3ccccc3c12 (stereo not shown) [Carvedilol] |  |
|  |  |  |  |  |  |  |  | CC/C=C\C/C=C\C/C=C\C/C=C\C/C=C\CCCC(=O)O [EPA, eicosapentaenoic acid] | cleared in the first pass (liver) [4]: ≤ 90% |
| Hepatic |  | 14 to 22 h | 80-89% | 3 to 4 h | 15% | No | > 80% | CC(C)NCC(O)COc1ccc(CCOCC2CC2)cc1 (stereo not shown) [Betaxolol] |  |
|  | Renal | 3 to 4 h | 90-100% |  | 40% |  |  | CC(C)NCC(O)COc1cccc2[nH]ccc12 (stereo not shown) [Pindolol] |  |
|  |  |  |  |  |  |  |  | COCCc1ccc(OCC(O)CNC(C)C)cc1 (racemic) [Metoprolol tartrate, (±)-1-(isopropylamino)-3-(p-(2-(methoxyethyl)phenoxy)-2-propanol (2:1) dextrotartrate salt] | solubility in ethanol / alcohol [2]: freely soluble; solubility in water [2]: very soluble |
|  |  | 3 to 4 h | 70% |  |  |  | 30-40% | CCCC(=O)Nc1ccc(OCC(O)CNC(C)C)c(C(C)=O)c1 (stereo not shown) [Acebutolol] | Elimination, Biliary/fecal (%) [1]: 50-60% |
| None | Renal | 20 to 24 h | 30% | 4 h | 70% | Yes |  | CC(C)(C)NCC(O)COc1cccc2c1CC(O)C(O)C2 (stereo not shown) [Nadolol] | Half-life ([1]; stated in the text): 10 to 24 h; route of elimination ([1]; stated in the text): kidney excreted |
| Hepatic |  | 5 h | 100% | 1.5 to 3 h | 0% | No | 90% | CC(C)(C)NC[C@H](O)COc1ccccc1C1CCCC1 [Penbutolol] |  |
|  |  |  |  |  |  |  |  | COCCc1ccc(OCC(O)CNC(C)C)cc1 (racemic) [Metoprolol succinate, (±)1-(isopropylamino)-3-[p-(2-methoxyethyl)phenoxy]-2-propanol succinate (2:1) (salt)] | solubility in ethanol / alcohol [2]: sparingly soluble; solubility in water [2]: freely soluble |
| Hepatic |  | 4 h | 90% | 1 to 2 h | 20% | No |  | CC(C)(C)NC[C@H](O)COc1nsnc1N1CCOCC1 [Timolol] | Elimination (route) ([1]; in vivo, fecal elimination): Fecal; Elimination (route) ([1]; in vivo, renal elimination): Renal |

| Compound | Biotransformation ([1]; in vivo) | Elimination (route) ([1]; in vivo) | Half-life ([1]; in vivo) | Oral Absorp. (%) ([1]; in vivo) | Time to Peak Effect Single dose [1] | Elimination (% unchanged) [1] | Removable by Hemodialysis ([1]; in vivo) | Elimination, Renal (%) [1] | also measured |
| --- | --- | --- | --- | --- | --- | --- | --- | --- | --- |
| CC(C)NCC(O)COc1cccc2ccccc12.Cl (stereo not drawn) [Propranolol, 2-Propanol, 1-[(1-methylethyl)amino]-3-(1-naphthalenyloxy)-, hydrochloride, (+)-] |  |  | 3 to 5 h |  |  |  |  |  | adverse events ([3]; both previous trials): No adverse events were reported; elevated inflammatory cytokines [3, 5]: reduction; elevated resting energy expenditure [3, 5]: reduction; elevated inflammatory cytokines [3, 6]: reduction; elevated resting energy expenditure [3, 6]: reduction; rate of loss of lean body mass [3, 6]: reduction; stability of the solid ([2]; crystalline solid): stable; solubility in ethanol / alcohol [2]: readily soluble; solubility in water [2]: readily soluble |
